PubChem BioAssay (NCI)
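1) Cells in 96-well plates. 2) Compound, 48 h, 5 concentrations. 3) Linear interpolation between surrounding doses. 4) Unreached endpoint = highest concentration. TGI marks complete inhibition of growth.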

Key:
Test in all cases: growth of human tumour cells (NCI), 48 h
[1] = test system: SF-295 CNS
[2] = test system: NCI-H460 lung
[3] = test system: SF-268 CNS
[4] = test system: HCT-15 colon
[5] = test system: U251 CNS
[6] = test system: MCF7 breast
[7] = test system: IGROV1 ovarian
[8] = test system: MDA-MB-231 breast
[9] = test system: DU-145 prostate
[10] = test system: ACHN renal
[11] = test system: HS 578T breast
[12] = test system: UO-31 renal
[13] = test system: SR leukemia
[14] = test system: NCI-H522 lung
[15] = test system: CAKI-1 renal
[16] = test system: OVCAR-5 ovarian
[17] = test system: HT29 colon
[18] = test system: HL-60(TB) leukemia
[19] = test system: BT-549 breast
[20] = test system: T-47D breast
[21] = test system: SN12C renal
[22] = test system: UACC-257 melanoma
[23] = test system: HOP-92 NSCLC
[24] = test system: KM12 colon
[25] = test system: UACC-62 melanoma
[26] = test system: K-562 leukemia
[27] = test system: MOLT-4 leukemia
[28] = test system: COLO 205 colon
[29] = test system: A549 NSCLC
[30] = test system: SK-MEL-5 melanoma
[31] = test system: RPMI-8226 leukemia
[32] = test system: EKVX NSCLC
[33] = test system: OVCAR-8 ovarian
[34] = test system: SW-620 colon
[35] = test system: NCI-H226 lung
[36] = test system: CCRF-CEM leukemia
[37] = test system: MDA-N
[38] = test system: SK-MEL-2 melanoma
[39] = test system: RXF 393 renal
[40] = test system: MALME-3M melanoma
[41] = test system: 786-0 renal
[42] = test system: SF-539 CNS
[43] = test system: PC-3 prostate
[44] = test system: SK-OV-3 ovarian
[45] = test system: HCT-116 colon
[46] = test system: SNB-19 CNS
[47] = test system: TK-10 renal
[48] = test system: NCI-H23 lung
[49] = test system: SNB-75 CNS
[50] = test system: M14 melanoma
[51] = test system: NCI/ADR-RES ovarian
[52] = test system: MDA-MB-435
[53] = test system: OVCAR-4 ovarian
[54] = test system: LOX IMVI melanoma
[55] = test system: A498 renal
[56] = test system: HCC-2998 colon
[57] = test system: HOP-62 NSCLC
[58] = test system: OVCAR-3 ovarian
[59] = test system: SK-MEL-28 melanoma
[60] = test system: DMS 114 small cell lung
[61] = test system: M19-MEL melanoma
[62] = test system: DMS 273 small cell lung
[63] = test system: SNB-78 CNS
[64] = test system: DLD-1 colon
[65] = test system: KM20L2 colon
[66] = test system: HOP-18 NSCLC

SMILES: COC(CNC(=O)C(C)NC(=O)/C=C/c1ccccc1)OC (stereo not given)
- TGI [1]: > 100 µM
- TGI [2]: > 100 µM
- TGI [3]: > 100 µM
- TGI [4]: > 100 µM
- TGI [5]: > 100 µM
- TGI [6]: > 100 µM
- TGI [7]: > 100 µM
- TGI [8]: > 100 µM
- TGI [9]: > 100 µM
- TGI [10]: > 100 µM
- TGI [11]: > 100 µM
- TGI [12]: > 100 µM
- TGI [13]: > 100 µM
- TGI [14]: > 100 µM
- TGI [15]: > 100 µM
- TGI [16]: > 100 µM
- TGI [17]: > 100 µM
- TGI [18]: > 100 µM
- TGI [19]: > 100 µM
- TGI [20]: > 100 µM
- TGI [21]: > 100 µM
- TGI [22]: > 100 µM
- TGI [23]: > 100 µM
- TGI [24]: > 100 µM
- TGI [25]: > 100 µM
- TGI [26]: > 100 µM
- TGI [27]: > 100 µM
- TGI [28]: > 100 µM
- TGI [29]: > 100 µM
- TGI [30]: > 100 µM
- TGI [31]: > 100 µM
- TGI [32]: > 100 µM
- TGI [33]: > 100 µM
- TGI [34]: > 100 µM
- TGI [35]: > 100 µM
- TGI [36]: > 100 µM
- TGI [37]: > 100 µM
- TGI [38]: > 100 µM
- TGI [39]: > 100 µM
- TGI [40]: > 100 µM
- TGI [41]: > 100 µM
- TGI [42]: > 100 µM
- TGI [43]: > 100 µM
- TGI [44]: > 100 µM
- TGI [45]: > 100 µM
- TGI [46]: > 100 µM
- TGI [47]: > 100 µM
- TGI [48]: > 100 µM
- TGI [49]: > 100 µM
- TGI [50]: > 100 µM
- TGI [51]: > 100 µM
- TGI [52]: > 100 µM

SMILES: CN(C)CCCC12CCCCC1=Nc1ccccc12 (stereo not given)
- TGI [1]: > 100 µM
- TGI [2]: > 100 µM
- TGI [3]: > 100 µM
- TGI [53]: > 100 µM
- TGI [4]: > 100 µM
- TGI [5]: > 100 µM
- TGI [6]: > 100 µM
- TGI [7]: > 100 µM
- TGI [8]: > 100 µM
- TGI [9]: > 100 µM
- TGI [10]: > 100 µM
- TGI [11]: > 100 µM
- TGI [12]: > 100 µM
- TGI [13]: 69.2 µM
- TGI [14]: > 100 µM
- TGI [54]: > 100 µM
- TGI [15]: > 100 µM
- TGI [16]: > 100 µM
- TGI [17]: > 100 µM
- TGI [18]: 76.3 µM
- TGI [55]: > 100 µM
- TGI [19]: > 100 µM
- TGI [20]: > 100 µM
- TGI [21]: > 100 µM
- TGI [22]: > 100 µM
- TGI [23]: > 100 µM
- TGI [24]: > 100 µM
- TGI [25]: > 100 µM
- TGI [26]: > 100 µM
- TGI [27]: > 100 µM
- TGI [28]: > 100 µM
- TGI [29]: > 100 µM
- TGI [30]: > 100 µM
- TGI [31]: > 100 µM
- TGI [32]: > 100 µM
- TGI [33]: > 100 µM
- TGI [34]: > 100 µM
- TGI [35]: > 100 µM
- TGI [36]: > 100 µM
- TGI [37]: > 100 µM
- TGI [38]: > 100 µM
- TGI [39]: > 100 µM
- TGI [40]: > 100 µM
- TGI [41]: > 100 µM
- TGI [56]: > 100 µM
- TGI [42]: > 100 µM
- TGI [43]: > 100 µM
- TGI [44]: > 100 µM
- TGI [57]: > 100 µM
- TGI [45]: > 100 µM
- TGI [58]: > 100 µM
- TGI [46]: > 100 µM
- TGI [47]: > 100 µM
- TGI [59]: > 100 µM
- TGI [48]: > 100 µM
- TGI [49]: > 100 µM
- TGI [50]: > 100 µM
- TGI [51]: > 100 µM
- TGI [52]: > 100 µM

SMILES: N#CC(C(=O)C(=O)C(C#N)c1ccc(Br)cc1)c1ccc(Br)cc1 (stereo not given)
- TGI [1]: 26.6 µM
- TGI [60]: 26.5 µM
- TGI [2]: 30.5 µM
- TGI [61]: 25.8 µM
- TGI [3]: 32.4 µM
- TGI [53]: 24.9 µM
- TGI [4]: 26.1 µM
- TGI [5]: 23.8 µM
- TGI [7]: 30 µM
- TGI [10]: 25.1 µM
- TGI [12]: 29.9 µM
- TGI [13]: > 100 µM
- TGI [54]: 23.6 µM
- TGI [15]: 37.1 µM
- TGI [16]: 32.1 µM
- TGI [17]: 22.8 µM
- TGI [18]: 20.6 µM
- TGI [55]: 29.3 µM
- TGI [21]: 28 µM
- TGI [22]: 25.1 µM
- TGI [23]: 26.4 µM
- TGI [24]: 22.4 µM
- TGI [25]: 7.03 µM
- TGI [26]: > 100 µM
- TGI [27]: 47.1 µM
- TGI [28]: 31.4 µM
- TGI [62]: 24.9 µM
- TGI [29]: 46.5 µM
- TGI [30]: 27.5 µM
- TGI [31]: > 100 µM
- TGI [32]: 24.6 µM
- TGI [34]: 31.3 µM
- TGI [35]: 34.8 µM
- TGI [36]: > 100 µM
- TGI [63]: 37.4 µM
- TGI [38]: 27.5 µM
- TGI [64]: 34.5 µM
- TGI [39]: 9.01 µM
- TGI [40]: 27.7 µM
- TGI [41]: 27 µM
- TGI [56]: 24.5 µM
- TGI [42]: 29.4 µM
- TGI [65]: 27.7 µM
- TGI [44]: 33.1 µM
- TGI [57]: 27.2 µM
- TGI [45]: 29.5 µM
- TGI [58]: 21.4 µM
- TGI [46]: 30.7 µM
- TGI [47]: 30.6 µM
- TGI [59]: 28.9 µM
- TGI [48]: 14.1 µM
- TGI [49]: 17.7 µM
- TGI [50]: 31.6 µM
- TGI [66]: 25.9 µM
